# Experimental data published in patent publication US4055640A, “Compositions and methods for controlling the growth of bacteria, fungi and algae using certain derivatives of N-(2,2-dichlorovinyl)salicylamides” (Nippon Kayaku Co., Ltd., priority 1975, dated 1977).
# Structures can show the parent of a compound that is named as a salt.
# Legend:
# fungi [1] = assay: Degree of propagation on slime test boards (Example 19); type: cell-based; parameters: key: -: no propagation; +: the area of propagation is 1 - 25% on the slime test boards.; ++: the area of propagation is 26 - 50% on the slime test boards.; +++: the area of propagation is 51 - 75% on the slime test boards.; ++++: the area of propagation is 76 - 100% on the slime test boards
# Method: (§1) Zero point zero two (0.02) part of active compounds in the form of 10% water soluble concentrate which was prepared by Example 13 was added into 100 parts of Waxman's liquid medium. Pieces of wood and iron (hereafter referred to as the slime test boards) were soaked into the Waxman's liquid medium. The bacteria which were gathered from circular water system were inoculated upon the Waxman's liquid medium and incubated at 27° C-34° C by shaking culture. The degree of propagation of the bacteria on the slime test boards was examined.
# (§2) The growth-inhibiting activity of active compounds against the fungi and the green algae was also examined by the same method as mentioned above.
# (§3) The degree of propagation of the bacteria, fungi or green algae on the slime test boards is defined in terms of the following symbols.
# green algae [2] = assay: as above; type: cell-based; parameters: key: -: no propagation; +: the area of propagation is 1 - 25% on the slime test boards.; ++: the area of propagation is 26 - 50% on the slime test boards.; +++: the area of propagation is 51 - 75% on the slime test boards.; ++++: the area of propagation is 76 - 100% on the slime test boards
# Method: as §1, §2, §3
# [3] = tested on: bacteria gathered from circular water system; assay: as above; type: cell-based; parameters: key: -: no propagation; +: the area of propagation is 1 - 25% on the slime test boards.; ++: the area of propagation is 26 - 50% on the slime test boards.; +++: the area of propagation is 51 - 75% on the slime test boards.; ++++: the area of propagation is 76 - 100% on the slime test boards
# Method: as §1, §2, §3
# Bacillus subtilis [4] = assay: Minimum inhibitory concentration, dilution methods (Example 14); type: cell-based; settings: (3) glucose bouillon medium dilution method
# From the text: (§4) Bacteriocidal activity and fungicidal activity of the active compounds of the present invention were examined by potato-dextrose agar dilution method, [2] waxman's liquid medium dilution method or [3] glucose bouillon medium dilution method. The results are shown in Table 4 below as the minimum inhibitory concentration (the minimum concentration of active compound found to produce 100% control of the test bacteria and fungi).
# Staphylococcus aureus [5] = assay: as above; type: cell-based; settings: (3) glucose bouillon medium dilution method
# From the text: as §4
# Penicillium Citrinum [6] = assay: as above; type: cell-based; settings: (1) potato-dextrose agar dilution method
# From the text: as §4
# Pseudomonas fluorescens = assay: as above; type: cell-based; settings: (1) potato-dextrose agar dilution method
# From the text: as §4
# Aspergillus niger [7] = assay: as above; type: cell-based; settings: (1) potato-dextrose agar dilution method
# From the text: as §4
# Escherichia coli [8] = assay: as above; type: cell-based; settings: (3) glucose bouillon medium dilution method
# From the text: as §4
# Cladosporium harbarum [9] = assay: as above; type: cell-based; settings: (1) potato-dextrose agar dilution method
# From the text: as §4
# [10] = tested on: Aspergillus niger, Penicillium citrinum, Cladosporium harbarum and chaetomium globosum; assay: Degree of growth inhibition of fungi on treated beach plates (Example 17); type: cell-based; parameters: scale not given here; settings: numerical rating, 2 weeks
# Method: The emulsifiable concentrates which were prepared by Example 10 were diluted with water 400 times and 800 times to form emulsions.
# The square plates of beach of which a side was 5 cm long and thickness was 5 mm were dipped into the emulsion for 2 minutes and dried for 24 hours at room temperature.
# The square plates were placed on the surface of agar plates. The suspensions which contained spores of Aspergillus niger, Penicillium citrinum, Cladosporium harbarum and chaetomium globosum were respectively sprayed on the agar plates and the square plates.
# The test fungi were cultivated in the incubator at the humidity of 95% and the temperature of 28° C for 2 weeks.
# The degree of growth inhibition is defined in terms of the following numerical ratings.
# summer orange seedlings = assay: Phytotoxicity on summer orange seedlings (Experimental Example 6); type: in vivo; settings: 1,000 ppm
# [11] = tested on: cucumber (variety: Azumamidori); assay: Phytotoxicity on cucumber (Experimental Example 3); type: in vivo; settings: 1,000 ppm
# [12] = tested on: Rhizoctonia solani (damping-off of cucumber); assay: Exterminating test on damping-off of cucumber (Experimental Example 3); type: in vivo; settings: 1,000 ppm, soil drench 50 ml per pot, 10 days
# Summary of the method: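 Percentage of healthy seedlings was scored 10 days post inoculation, with PCNB 50% wettable powder run alongside as reference. Each pot held 10 Azumamidori cucumber seeds in field soil carrying 5 g Rhizoctonia solani. Soil drench: 50 ml water suspension of 80% wettable powder; greenhouse.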
# [13] = tested on: seedling blight of rice plant (pathogen Fusarium sp. and Rhizoctonia sp.); assay: Exterminating test on seedling blight of rice plant (Experimental Example 1); type: in vivo; settings: 0.25g/box a.i., 5% dust mixed with soil
# Summary of the method: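 Pathogen-contaminated nursery soil (Fusarium sp., Rhizoctonia sp.) mixed with 5% compound dust at 5 g per box; Nihonbare rice sown, grown 7 days at 17° C in lighting chamber, then moved to field. Assessed 10 days later as percentage of healthy seedlings; commercial 4% hydroxyisoxazol dust run as control.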
# Bacillus subtilis [14] = assay: Growth inhibition zone around treated cotton cloth (Example 18); type: cell-based; settings: emulsifiable concentrate diluted 1000 times
# Method: (§5) The emulsifiable concentrates which were prepared by Example 10 were diluted with water 1000 times to form an emulsion. A cloth of cotton was soaked into each emulsion for 2 minutes. The clothes were dried at room temperature and cut into a square of which a side was 1 cm long. Each kind of test bacteria and fungi was inoculated, separately on plates of potato-agar and one square cloth was placed on each of such plates. Test bacteria and fungi were cultivated at 28° C for 4 days. The width of the region of growth-inhibition which was formed a circumference of the cloth was examined.
# Staphylococcus aureus [15] = assay: as above; type: cell-based; settings: emulsifiable concentrate diluted 1000 times
# Method: as §5
# Penicillium Citrinum [16] = assay: as above; type: cell-based; settings: emulsifiable concentrate diluted 1000 times
# Method: as §5
# Aspergillus niger [17] = assay: as above; type: cell-based; settings: emulsifiable concentrate diluted 1000 times
# Method: as §5
# [18] = tested on: Fusarium wilt of cucumber; assay: Exterminating test on Fusarium wilt of cucumber (Experimental Example 4); type: in vivo, Fusarium oxysporum f, cucumerinum; settings: 500 ppm, soil drench 100 ml per pot, two weeks
# Summary of the method: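 Pots of steam-sterilized soil mixed with 20 g infested soil, sown with 18 cucumber seeds (Tokiwazibai), drenched with 100 ml aqueous suspension of 80% wettable powder. Benlate 50% wettable powder run as control. Disease scored two weeks after planting as percentage of healthy seedlings.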
# [19] = tested on: cucumber (variety; Tokiwazibai); assay: Phytotoxicity on cucumber (Experimental Example 4); type: in vivo; settings: 500 ppm
# Method: Exterminating test on Fusarium wilt of cucumber Twenty (20) grams of infected soil was added uniformly into each pot which was filled with steam sterilized field soil, then 18 seeds of cucumber (variety; Tokiwazibai) were sowed in each pot. Eighty percent (80%) wettable powder of the present invention was diluted with water to obtain a suspension, and each pot was drenched with the suspension in an amount of 100 ml. Fifty percent (50%) wettable powder of methyl-1-(butylcarbamoyl) 2-benzimidazol carbamate (hereinafter referred to as Benlate) on the market was used as a control and tested by the same method. After two weeks of planting, degrees attacked by the pathogen was observed and a "percentage of healthy seedlings" was calculated as follows: [formula]
# [20] = tested on: seedlings of kidney beans (variety: Orient); assay: Phytotoxicity on kidney beans (Experimental Example 5); type: in vivo; settings: 1,000 ppm
# [21] = tested on: Bacteria, fungi and slime; assay: Inhibition of bacteria, fungi and slime in use (Example 23); settings: water soluble concentrate; 10-20 ppm in water, 0.01-0.1% in pastes
# Method: Before application, the concentrate was diluted 500-1000 times with water and sprayed on the inside of cotes to prevent the growth of bacteria and fungi.
# The solution was added to water in circular water systems to inhibit the growth of slime. The concentration of Compound No. 21 in the water was 10-20 ppm.
# An amount of 0.01-0.1% of Compound No. 21 as the solution was added to pastes or binding agents to prevent rottenness of them.
# Bacillus subtilis [22] = assay: Minimum inhibitory amount, dilution methods (Example 24); type: cell-based; settings: (2) glucose bouillon medium dilution method
# From the text: (§6) Bactericidal activity and fungicidal activity of the active compounds of the present invention were examined by potato-dextrose agar dilution method, or [2] glucose bouillon medium dilution method. The results are shown in Table 10 below as the minimum inhibitory concentration (the minimum concentration of active compound found to produce 100% control of the test bacteria and fungi).
# Staphylococcus aureus [23] = assay: as above; type: cell-based; settings: (2) glucose bouillon medium dilution method
# From the text: as §6
# Penicillium Citrinum [24] = assay: as above; type: cell-based; settings: (1) potato-dextrose agar dilution method
# From the text: as §6
# Aspergillus niger [25] = assay: as above; type: cell-based; settings: (1) potato-dextrose agar dilution method
# From the text: as §6
# Escherichia coli [26] = assay: as above; type: cell-based; settings: (2) glucose bouillon medium dilution method
# From the text: as §6
# Cladosporium harbarum [27] = assay: as above; type: cell-based; settings: (1) potato-dextrose agar dilution method
# From the text: as §6
# [28] = tested on: botrytis cinerea (gray mold); assay: Exterminating test on gray mold of tomato (Experimental Example 5); type: in vivo; parameters: scale not given here; settings: 1,000 ppm, 48 hours after inoculation, kidney bean leaves
# Method: Exterminating test on gray mold of tomato The seedlings of kidney beans (variety: Orient) of 5-6 leaves stage were employed in this test. Eighty percent (80%) wettable powder of the present invention was diluted with water and sprayed over the seedlings in an amount of 10 ml per pot. The leaves were cut from the plant at 24 hours after spraying, and placed in the petri dishes (12 cm in diameter). Thereafter disks (5 mm in diameter) were cut with a cork borer from potato dextrose agar on which the pathogen (botrytis cinerea) was cultured. The disks were placed on the leaves. The dishes were placed in such a moistural condition as to cause the pathogen to propagate. Thiophanate methyl 70% wettable powder on the market was used as a control and tested by the same method. After forty eight (48) hours after inoculation, diameters of the lesions were observed, and an "Effect Index" was calculated as follows; [formula]
# fungi [29] = assay: Degree of propagation on slime test boards (Example 27); type: cell-based; settings: same method, shaking culture for 2 days
# Summary of the method: (§7)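 Wood slime test boards were soaked in Waxman's liquid medium holding 0.02 part active compound (as 10% water-soluble concentrate) per 100 parts medium. Medium was inoculated with bacteria from a circular water system, fungi or green algae and shake-cultured 2 days at 27°-34° C. Propagation on the boards was scored with symbols.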
# green algae [30] = assay: as above; type: cell-based; settings: same method, shaking culture for 2 days
# Summary of the method: as §7
# [31] = tested on: bacteria gathered from circular water system; assay: as above; type: cell-based; settings: shaking culture for 2 days
# Summary of the method: as §7
smiles,measurement,setting,value
O=C(NC=C(Cl)Cl)c1ccccc1O [Compound No. 23],Degree of propagation,fungi [1]; 7th day,-
same,Degree of propagation,fungi [1]; 14th day,-
same,Degree of propagation,fungi [1]; 21st day,-
same,Degree of propagation,green algae [2]; 7th day,-
same,Degree of propagation,green algae [2]; 14th day,-
same,Degree of propagation,green algae [2]; 21st day,+ (the area of propagation is 1 - 25% on the slime test boards.)
same,Degree of propagation,[3]; 7th day,-
same,Degree of propagation,[3]; 14th day,-
same,Degree of propagation,[3]; 21st day,+ (the area of propagation is 1 - 25% on the slime test boards.)
same,minimum inhibitory concentration,Bacillus subtilis [4],5 mc g/ml
same,minimum inhibitory concentration,Staphylococcus aureus [5],10 mc g/ml
same,minimum inhibitory concentration,Penicillium Citrinum [6],10 mc g/ml
same,minimum inhibitory concentration,Pseudomonas fluorescens,13 mc g/ml
same,minimum inhibitory concentration,Aspergillus niger [7],10 mc g/ml
same,minimum inhibitory concentration,Escherichia coli [8],60 mc g/ml
same,minimum inhibitory concentration,Cladosporium harbarum [9],5 mc g/ml
same,Degree of growth inhibition,[10]; 0.0125 %,3
same,Degree of growth inhibition,[10]; 0.025 %,3
same,Phytotoxicity,summer orange seedlings,Nil
"O=[N+]([O-])c1c(Cl)c(Cl)c(Cl)c(Cl)c1Cl [PCNB, pentachloronitro benzene, reference compound]",Phytotoxicity,[11],Nil
same,pest or weed control at 1000 ppm,"[12]; Rhizoctonia solani, 240 h, read-out: Percentage of healthy seedlings",45%
O=C(NC=C(Cl)Cl)c1ccccc1[O-].O=C(NC=C(Cl)Cl)c1ccccc1[O-].[Zn+2] [compound 24],minimum inhibitory concentration,Bacillus subtilis [4],2.5 mc g/ml
same,minimum inhibitory concentration,Staphylococcus aureus [5],5 mc g/ml
same,minimum inhibitory concentration,Penicillium Citrinum [6],10 mc g/ml
same,minimum inhibitory concentration,Aspergillus niger [7],10 mc g/ml
same,minimum inhibitory concentration,Escherichia coli [8],40 mc g/ml
same,minimum inhibitory concentration,Cladosporium harbarum [9],2.5 mc g/ml
same,Percentage of healthy seedlings,[13],71.3%
same,Degree of growth inhibition,[10]; 0.0125 %,3
same,Degree of growth inhibition,[10]; 0.025 %,3
same,width of the growth inhibition zone,Bacillus subtilis [14],10 mm
same,width of the growth inhibition zone,Staphylococcus aureus [15],8 mm
same,width of the growth inhibition zone,Penicillium Citrinum [16],5 mm
same,width of the growth inhibition zone,Aspergillus niger [17],5 mm
same,Percentage of healthy seedlings,[18],47.0%
same,Percentage of healthy seedlings,[12],100%
"CCCCNC(=O)n1c(NC(=O)OC)nc2ccccc21 [Benlate, methyl-1-(butylcarbamoyl) 2-benzimidazol carbamate, reference compound]",Phytotoxicity,[19],Nil
same,pest or weed control at 500 ppm,"[18]; Fusarium, 336 h, read-out: Percentage of healthy seedlings",45%
"O=C(NC=C(Cl)Cl)c1cc(Cl)ccc1O [Compound No. 21, sodium salt of N-(2'-2'-dichlorovinyl)-5-chlorosalicylamide]",Phytotoxicity,[20],Nil
same,Phytotoxicity,summer orange seedlings,Nil
same,"inhibition of bacteria, fungi and slime",[21],inhibited for a long time
same,Minimum inhibitory amount,Bacillus subtilis [22],2.5 µg/mL
same,Minimum inhibitory amount,Staphylococcus aureus [23],2.5 µg/mL
same,Minimum inhibitory amount,Penicillium Citrinum [24],5 µg/mL
same,Minimum inhibitory amount,Aspergillus niger [25],10 µg/mL
same,Minimum inhibitory amount,Escherichia coli [26],40 µg/mL
same,Minimum inhibitory amount,Cladosporium harbarum [27],5 µg/mL
same,Effect Index,[28],80
same,Degree of propagation,fungi [29],-
same,Degree of propagation,green algae [30],-
same,Degree of propagation,[31],-
